Experimental data reported in patent publication US20210238225A1, “PEPTIDOMIMETIC INHIBITORS OF THE PEPTIDYL-PROLYL CIS/TRANS ISOMERASE (PIN1)” (DANA-FARBER CANCER INSTITUTE, INC., priority 2018, published 2021).
Where two headings read alike, the source gives them in different places. Non-standard residues stand in square brackets, D forms with d. Residues, ends and D or L forms follow the SMILES beside them. *: point of attachment. Ala(4-thiazolyl) = N[C@@H](Cc1cscn1)C(=O)O; Phe(4-F) = N[C@@H](Cc1ccc(F)cc1)C(=O)O; 2Nal = N[C@@H](Cc1ccc2ccccc2c1)C(=O)O; NH(4-Me-benzyl) = Cc1ccc(CN*)cc1; NMeF = CN[C@@H](Cc1ccccc1)C(=O)O; Cit = NC(=O)NCCC[C@H](N)C(=O)O; Pip = O=C(O)[C@@H]1CCCCN1; Piperidide = C1CCN(*)CC1; NHcBu = C1CC(N*)C1; NHtBu = CC(C)(C)N*; ClAc = O=C(CCl)*; NHcPr = C1CC1N*

Experiments:
Pin1 = Pin1 (Homo sapiens, UniProt Q13526); assay: Cellular target engagement, live cell biotin competition assay in TNBC MDA-MB-231 cells; type: cell-based; design: endogenous in cells; host or cells: MDA-MB-231; conditions: TNBC MDA-MB-231 cells; for Cellular Target Engagement?: 5 hours treatment, concentration under E7; for Cellular Target Engagement? concentration stated for complete engagement: read with the E6 line
Procedure: TNBC MDA-MB-231 cells were plated in 10 cm plates with 2.5 million cells per plate in 6 mL of media. The day after plating, cells were treated with the indicated concentrations of compound 18 for 5 hours. The cells were washed 2× with 0.9% NaCl (1 mL per 10 cm plate), and collected by scraping with a cell scraper. Cells were lysed in lysis buffer (50 mM Hepes pH 7.5, 150 mM NaCl, 1 mM EDTA, 10% v/v glycerol, 0.5% v/v […], protease inhibitors (Roche)) using 210 μL of cell lysis buffer per 10 cm plate of cells. After clarifying by centrifugation (14,000 rpm for 15 min at 4° C.), 5 μL of each lysate sample was combined with 5 μL of 2× LDS+10% β-mercaptoethanol, boiled for 5 minutes, and set aside for the input loading control (later to be loaded directly in the gel). Then, 200 μL of each lysate was then incubated with 1 μM of compound 2-32 (biotin probe compound) for 1 hour at 4° C. Lysates were then incubated with streptavidin agarose resin (30 μL of 1:1 beads: lysis buffer slurry) (Thermo Scientific™, cat. #20349) for 2 hours at 4° C. Beads were washed 4 times with 500 μL of washing buffer (50 mM Hepes, pH7.5, 10 mM NaCl, 1 mM EDTA, 10% glycerol), then pelleted by centrifugation and dried. The beads were then boiled at 95° C. for 5 minutes in 30 μL of 2× LDS+10% β-mercaptoethanol. Lysates were probed for specified proteins by western blotting using the Bolt system (Life Technologies™).

Pin1 (GST-Pin1) = Pin1 (GST-Pin1) (Homo sapiens, UniProt Q13526); assay: Fluorescence polarization (FP) assay, binding to Pin1; conditions: competition with fluorescein-labeled peptide probe, 12 hours pre-incubation at 4° C., Kenakin Ki equation
Chain of Pin1 (GST-Pin1) (Q13526 whole entry): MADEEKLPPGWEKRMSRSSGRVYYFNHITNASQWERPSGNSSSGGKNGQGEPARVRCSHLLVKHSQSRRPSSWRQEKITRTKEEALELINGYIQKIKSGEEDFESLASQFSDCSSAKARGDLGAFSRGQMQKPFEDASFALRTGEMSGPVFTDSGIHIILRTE

Chain of Pin1 (Q13526 whole entry): as above

Row | SMILES | Cellular Target Engagement? (Pin1) | Ki (Pin1 (GST-Pin1); read-out: Ki, μM (FP Assay)) [µM] | Cellular Target Engagement? concentration stated for complete engagement (Pin1) | Ki (Pin1 (GST-Pin1); Ki, μM (FP Assay)) [µM]
1 | NC(=O)[C@H](Cc1ccc(O)cc1)NC(=O)[C@H](Cc1ccc2ccccc2c1)NC(=O)[C@@H]1CCCCN1C(=O)[C@H](CCC(=O)O)NC(=O)CCl [Compound 2-6, (S)-5-((S)-2-(((S)-1-(((S)-1-Amino-3-(4-hydroxyphenyl)-1-oxopropan-2-yl)amino)-3-(naphthalen-2-yl)-1-oxopropan-2-yl)carbamoyl)piperidin-1-yl)-4-(2-chloroacetamido)-5-oxopentanoic acid] (ClAc-E[Pip][2Nal]Y-NH2) | No | 0.28 | – | –
2 | Cc1ccc(CNC(=O)[C@H](CCCNC(N)=O)NC(=O)[C@H](Cc2c[nH]c3ccccc23)NC(=O)[C@@H]2CCCCN2C(=O)[C@H](Cc2ccccc2)N(C)C(=O)CCl)cc1 [Compound 11, (S)—N—((S)-3-(1H-indol-3-yl)-1-(((S)-1-((4-methylbenzyl)amino)-1-oxo-5-ureidopentan-2-yl)amino)-1-oxopropan-2-yl)-1-(N-(2-chloroacetyl)-N-methyl-L-phenylalanyl)piperidine-2-carboxamide] (ClAc-[NMeF][Pip]W[Cit]-{NH(4-Me-benzyl)}) | Yes- | 0.01 | at 5 μM | –
3 | COC(=O)CC[C@H](NC(=O)CCl)C(=O)N1CCCC[C@H]1C(=O)N[C@@H](Cc1c[nH]c2ccccc12)C(=O)N[C@@H](Cc1ccc(F)cc1)C(=O)NCc1ccc(C)cc1 [Compound 11-3, Methyl (S)-4-(2-chloroacetamido)-5-((S)-2-(((S)-1-(((S)-3-(4-fluorophenyl)-1-((4-methylbenzyl)amino)-1-oxopropan-2-yl)amino)-3-(1H-indol-3-yl)-1-oxopropan-2-yl)carbamoyl)piperidin-1-yl)-5-oxopentanoate] (ClAc-E(OMe)[Pip]W[Phe(4-F)]-{NH(4-Me-benzyl)}) | Yes-Complete | – | at 15 μM | 0.19
4 | COC(=O)CC[C@H](NC(=O)CCl)C(=O)N1CCCC[C@H]1C(=O)N[C@@H](Cc1c[nH]c2ccccc12)C(=O)N[C@@H](CCCNC(N)=O)C(=O)NCc1ccc(C)cc1 [Compound 11-4, Methyl (S)-5-((S)-2-(((S)-3-(1H-indol-3-yl)-1-(((S)-1-((4-methylbenzyl)amino)-1-oxo-5-ureidopentan-2-yl)amino)-1-oxopropan-2-yl)carbamoyl)piperidin-1-yl)-4-(2-chloroacetamido)-5-oxopentanoate] (ClAc-E(OMe)[Pip]W[Cit]-{NH(4-Me-benzyl)}) | No | – | – | 0.03
5 | Cc1ccc(CNC(=O)[C@H](Cc2ccc(F)cc2)NC(=O)[C@H](Cc2c[nH]c3ccccc23)NC(=O)[C@@H]2CCCCN2C(=O)[C@H](CCC(=O)O)NC(=O)CCl)cc1 [Compound 11-5, (S)-4-(2-chloroacetamido)-5-((S)-2-(((S)-1-(((S)-3-(4-fluorophenyl)-1-((4-methylbenzyl)amino)-1-oxopropan-2-yl)amino)-3-(1H-indol-3-yl)-1-oxopropan-2-yl)carbamoyl)piperidin-1-yl)-5-oxopentanoic acid] (ClAc-E[Pip]W[Phe(4-F)]-{NH(4-Me-benzyl)}) | No | 0.13 | – | –
6 | Cc1ccc(CNC(=O)[C@H](CCCNC(N)=O)NC(=O)[C@H](Cc2c[nH]c3ccccc23)NC(=O)[C@@H]2CCCCN2C(=O)[C@H](CCC(=O)O)NC(=O)CCl)cc1 [Compound 11-6, (S)-5-((S)-2-(((S)-3-(1H-indol-3-yl)-1-(((S)-1-((4-methylbenzyl)amino)-1-oxo-5-ureidopentan-2-yl)amino)-1-oxopropan-2-yl)carbamoyl)piperidin-1-yl)-4-(2-chloroacetamido)-5-oxopentanoic acid] (ClAc-E[Pip]W[Cit]-{NH(4-Me-benzyl)}) | No | 0.01 | – | –
7 | COC(=O)CC[C@H](NC(=O)CCl)C(=O)N1CCCC[C@H]1C(=O)N[C@@H](Cc1c[nH]c2ccccc12)C(=O)N[C@@H](Cc1ccc(F)cc1)C(=O)NC(C)(C)C [Compound 11-18, Methyl (S)-5-((S)-2-(((S)-1-(((S)-1-(tert-butylamino)-3-(4-fluorophenyl)-1-oxopropan-2-yl)amino)-3-(1H-indol-3-yl)-1-oxopropan-2-yl)carbamoyl)piperidin-1-yl)-4-(2-chloroacetamido)-5-oxopentanoate] (ClAc-E(OMe)[Pip]W[Phe(4-F)]-NHtBu) | No | – | – | 0.134
8 | COC(=O)CC[C@H](NC(=O)CCl)C(=O)N1CCCC[C@H]1C(=O)N[C@@H](Cc1c[nH]c2ccccc12)C(=O)N[C@@H](Cc1ccc(F)cc1)C(=O)NC1CCC1 [Compound 11-19, Methyl (S)-4-(2-chloroacetamido)-5-((S)-2-(((S)-1-(((S)-1-(cyclobutylamino)-3-(4-fluorophenyl)-1-oxopropan-2-yl)amino)-3-(1H-indol-3-yl)-1-oxopropan-2-yl)carbamoyl)piperidin-1-yl)-5-oxopentanoate] (ClAc-E(OMe)[Pip]W[Phe(4-F)]-NHcBu) | No | – | – | 0.146
9 | COC(=O)CC[C@H](NC(=O)CCl)C(=O)N1CCCC[C@H]1C(=O)N[C@@H](Cc1c[nH]c2ccccc12)C(=O)N[C@@H](Cc1cscn1)C(=O)NCc1ccc(C)cc1 [Compound 11-28, Methyl (S)-5-((S)-2-(((S)-3-(1H-indol-3-yl)-1-(((S)-1-((4-methylbenzyl)amino)-1-oxo-3-(thiazol-4-yl)propan-2-yl)amino)-1-oxopropan-2-yl)carbamoyl)piperidin-1-yl)-4-(2-chloroacetamido)-5-oxopentanoate] (ClAc-E(OMe)[Pip]W[Ala(4-thiazolyl)]-{NH(4-Me-benzyl)}) | No | – | – | 0.099
10 | NC(=O)NCCC[C@H](NC(=O)[C@H](Cc1c[nH]c2ccccc12)NC(=O)[C@@H]1CCCCN1C(=O)[C@H](Cc1ccccc1)NC(=O)CCl)C(=O)NC1CC1 [Compound 11-38, (S)-1-((2-chloroacetyl)-L-phenylalanyl)-N—((S)-1-(((S)-1-(cyclopropylamino)-1-oxo-5-ureidopentan-2-yl)amino)-3-(1H-indol-3-yl)-1-oxopropan-2-yl)piperidine-2-carboxamide] (ClAc-F[Pip]W[Cit]-NHcPr) | No | 0.018 | – | –
11 | NC(=O)NCCC[C@H](NC(=O)[C@H](Cc1c[nH]c2ccccc12)NC(=O)[C@@H]1CCCCN1C(=O)[C@H](Cc1ccccc1)NC(=O)CCl)C(=O)N1CCCCC1 [Compound 11-39, (S)—N—((S)-3-(1H-indol-3-yl)-1-oxo-1-(((S)-1-oxo-1-(piperidin-1-yl)-5-ureidopentan-2-yl)amino)propan-2-yl)-1-((2-chloroacetyl)-L-phenylalanyl)piperidine-2-carboxamide] (ClAc-F[Pip]W[Cit]-Piperidide) | No | 0.017 | – | –
12 | CCOC(=O)[C@H](CCCNC(N)=O)NC(=O)[C@H](Cc1c[nH]c2ccccc12)NC(=O)[C@@H]1CCCCN1C(=O)[C@H](Cc1ccccc1)N(C)C(C)=O [Compound 18-1, Ethyl (S)-2-((S)-2-((S)-1-(N-acetyl-N-methyl-L-phenylalanyl)piperidine-2-carboxamido)-3-(1H-indol-3-yl)propanamido)-5-ureidopentanoate] (Ac-[NMeF][Pip]W[Cit]-OEt) | No | 1.9 | – | –
